Data on 20 molecules can be found in PubChem BioAssay AID248 (DTP/NCI, 2004).

The experiment deals with L1210 leukemia ip in BDF1 mice, survival T/C. Kind of experiment: NCI In Vivo Anticancer Drug Screen. Data for tumor model L1210 Leukemia (intraperitoneal) in B6D2F1 (BDF1) mice. The note with it: endpoint: mean survival time, higher = longer survival. An outline of the steps: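 Mice bearing the transplanted tumor received compound or vehicle. Survival of the treated group was divided by that of the vehicle-treated control group to give the ratio.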

Setting [1] is: dose: 50.0 mg/kg/injection, schedule: Q01DX009 (ip), vehicle: Klucel (hydroxypropylcellulose) (HPC).
Setting [2] is: dose: 100.0 mg/kg/injection, schedule: Q01DX009 (ip), vehicle: Klucel (hydroxypropylcellulose) (HPC).
[3] abbreviates: dose: 200.0 mg/kg/injection, schedule: Q01DX009 (ip), vehicle: Klucel (hydroxypropylcellulose) (HPC).
The mark [4] stands for this setting: dose: 100.0 mg/kg/injection, schedule: Q04DX003 (ip), vehicle: Klucel (hydroxypropylcellulose) (HPC).
Setting [5] is: dose: 200.0 mg/kg/injection, schedule: Q04DX003 (ip), vehicle: Klucel (hydroxypropylcellulose) (HPC).
Where [6] appears, read: dose: 400.0 mg/kg/injection, schedule: Q04DX003 (ip), vehicle: Klucel (hydroxypropylcellulose) (HPC).
Where [7] appears, read: dose: 100.0 mg/kg/injection, schedule: Q04DX003 (ip), vehicle: saline.
Setting [8] is: dose: 200.0 mg/kg/injection, schedule: Q04DX003 (ip), vehicle: saline.
Where [9] appears, read: dose: 400.0 mg/kg/injection, schedule: Q04DX003 (ip), vehicle: saline.
Where [10] appears, read: dose: 100.0 mg/kg/injection, schedule: Q01DX009 (ip), vehicle: saline with Tween-80.

Molecules are shown by their SMILES. Several values for one entry are separate records, joined by “and”; a condition that tells them apart may be missing. Equal values may be shown once. Toxic doses and inconclusive results are not listed.

`COC1/C=C/OC2(C)Oc3c(C)c(O)c4c(O)c(c(/C=N/N5CCN(Cc6ccccc6)CC5)c(O)c4c3C2=O)NC(=O)C(C)=C/C=C/C(C)C(O)C(C)C(O)C(C)C(OC(C)=O)C1C` (stereo unspecified): the T/C (dose: 3.13 mg/kg/injection, schedule: Q01DX009 (ip), vehicle: Klucel (hydroxypropylcellulose) (HPC)) was 91 % of control; the T/C (dose: 6.25 mg/kg/injection, schedule: Q01DX009 (ip), vehicle: Klucel (hydroxypropylcellulose) (HPC)) was 100 % of control; the T/C (dose: 12.5 mg/kg/injection, schedule: Q01DX009 (ip), vehicle: Klucel (hydroxypropylcellulose) (HPC)) was 91 % of control; the T/C (dose: 25.0 mg/kg/injection, schedule: Q01DX009 (ip), vehicle: Klucel (hydroxypropylcellulose) (HPC)) is 97 % of control; the T/C under setting [1] is 95 % of control and 110 % of control.
With `CSc1nc2ccc(S(=O)(=O)O)cc2s1`, the T/C was 104 % of control under setting [1], 96 % of control under setting [2] and 97 % of control under setting [3].
Regarding `CC(=C=CC(c1ccccc1)(c1ccccc1)c1ccccc1)CC(c1ccccc1)(c1ccccc1)c1ccccc1`, the T/C is 96 % of control under setting [4], 95 % of control under setting [5] and 95 % of control under setting [6].
On to `CCC1CN2C(=N1)c1ccccc1-c1cc(Cl)cc(Cl)c12` (stereo unspecified), for which the T/C runs as follows: (dose: 100.0 mg/kg/injection, schedule: Q01DX005 (ip), vehicle: Klucel (hydroxypropylcellulose) (HPC)) 88 % of control; (dose: 100.0 mg/kg/injection, schedule: Q04DX002 (ip), vehicle: Klucel (hydroxypropylcellulose) (HPC)) 107 % of control; (dose: 200.0 mg/kg/injection, schedule: Q01DX005 (ip), vehicle: Klucel (hydroxypropylcellulose) (HPC)) 94 % of control; (dose: 200.0 mg/kg/injection, schedule: Q04DX002 (ip), vehicle: Klucel (hydroxypropylcellulose) (HPC)) 101 % of control; (dose: 400.0 mg/kg/injection, schedule: Q01DX005 (ip), vehicle: Klucel (hydroxypropylcellulose) (HPC)) 102 % of control; (dose: 400.0 mg/kg/injection, schedule: Q04DX002 (ip), vehicle: Klucel (hydroxypropylcellulose) (HPC)) 101 % of control.
In the case of `c1ccc(N=NC(N=Nc2ccccc2)=P(c2ccccc2)(c2ccccc2)c2ccccc2)cc1`, the T/C reads like this: under setting [2], 97 % of control; under setting [3], 108 % of control.
Turning to `O=C1NC(=O)C(CO)(c2ccccc2)N1` (stereo unspecified), the T/C was 110 % of control (dose: 12.5 mg/kg/injection, schedule: Q04DX003 (ip), vehicle: saline); 103 % of control (dose: 25.0 mg/kg/injection, schedule: Q04DX003 (ip), vehicle: saline); 100 % of control (dose: 50.0 mg/kg/injection, schedule: Q04DX003 (ip), vehicle: saline); 94 % of control under setting [7]; 97 % of control under setting [8]; 100 % of control under setting [9].
In the case of `N#CC(C#N)=Cc1ccccc1[N+](=O)[O-]`, the T/C is 98 % of control (dose: 25.0 mg/kg/injection, schedule: Q01DX Z (ip), vehicle: methylcellulose (MC)) and 88 % of control (dose: 50.0 mg/kg/injection, schedule: Q01DX Z (ip), vehicle: methylcellulose (MC)).
`N#Cc1cc2c3ccccc3ncc2c2ccccc12`: the T/C is 91 % of control under setting [4], 96 % of control under setting [3], 89 % of control under setting [5] and 89 % of control under setting [6].
`O=C(OCC(O)C(O)C(O)C(O)COC(=O)c1ccccc1)c1ccccc1` (stereo unspecified) (tested in a mixture with another compound): the T/C by setting is: (dose: 100.0 mg/kg/injection, schedule: Q01DX001 (ip), vehicle: saline with Tween-80) 103 % of control; (dose: 200.0 mg/kg/injection, schedule: Q01DX001 (ip), vehicle: saline with Tween-80) 100 % of control; (dose: 400.0 mg/kg/injection, schedule: Q01DX001 (ip), vehicle: saline with Tween-80) 90 % of control.
As for `CN(C)CCc1ccc2cc3ccc(CCN(C)C)cc3nc2c1`, the T/C is 102 % of control (dose: 6.25 mg/kg/injection, schedule: Q04DX002 (ip), vehicle: saline with Tween-80); 105 % of control (dose: 12.5 mg/kg/injection, schedule: Q04DX002 (ip), vehicle: saline with Tween-80); 105 % of control (dose: 25.0 mg/kg/injection, schedule: Q04DX002 (ip), vehicle: saline with Tween-80).
For `COC(=O)C(C)=O`, the T/C was 103 % of control under setting [10]; 101 % of control (dose: 200.0 mg/kg/injection, schedule: Q01DX009 (ip), vehicle: saline with Tween-80); 98 % of control (dose: 400.0 mg/kg/injection, schedule: Q01DX009 (ip), vehicle: saline with Tween-80).
With `CCCCCCC(C)(C)NC(N)=O`, the T/C runs as follows: (dose: 100.0 mg/kg/injection, schedule: Q01DX001 (ip), vehicle: saline) 98 % of control; (dose: 200.0 mg/kg/injection, schedule: Q01DX001 (ip), vehicle: saline) 101 % of control; (dose: 400.0 mg/kg/injection, schedule: Q01DX001 (ip), vehicle: saline) 93 % of control.
Regarding `CCC(CC)NC(CC)CO` (stereo unspecified), the T/C (dose: 75.0 mg/kg/injection, schedule: Q01DX001 (ip), vehicle: carboxymethylcellulose (CMC)) is 101 % of control and the T/C (dose: 150.0 mg/kg/injection, schedule: Q01DX001 (ip), vehicle: carboxymethylcellulose (CMC)) was 100 % of control.
`C=CCn1cnc2c(=S)nc[nH]c21`: the T/C (dose: 12.0 mg/kg/injection, schedule: Q01DX015 (ip), vehicle: other) was 124 % of control; the T/C (dose: 37.5 mg/kg/injection, schedule: Q01DX Z (ip), vehicle: alkali diluted with saline) is 166 % of control; the T/C (dose: 63.0 mg/kg/injection, schedule: Q01DX015 (ip), vehicle: other) is 92 % of control; the T/C (dose: 75.0 mg/kg/injection, schedule: Q01DX Z (ip), vehicle: alkali diluted with saline) was 114 % of control; the T/C (dose: 100.0 mg/kg/injection, schedule: Q01DX001 (ip), vehicle: other) is 116 % of control; the T/C (dose: 108.0 mg/kg/injection, schedule: Q01DX015 (ip), vehicle: other) is 87 % of control. Besides, the T/C (dose: 150.0 mg/kg/injection, schedule: Q01DX Z (ip), vehicle: alkali diluted with saline) is 92 % of control.
As for `CC(C)(C)N1CCCC1`, the T/C (dose: 25.0 mg/kg/injection, schedule: Q01DX009 (ip), vehicle: saline with Tween-80) is 96 % of control; the T/C (dose: 50.0 mg/kg/injection, schedule: Q01DX009 (ip), vehicle: saline with Tween-80) was 91 % of control; the T/C under setting [10] is 88 % of control.
For the molecule `COC(=O)CSC(=S)N(C)C`, the T/C (dose: 100.0 mg/kg/injection, schedule: Q04DX003 (ip), vehicle: saline with Tween-80) was 91 % of control; the T/C (dose: 200.0 mg/kg/injection, schedule: Q04DX003 (ip), vehicle: saline with Tween-80) is 91 % of control; the T/C (dose: 400.0 mg/kg/injection, schedule: Q04DX003 (ip), vehicle: saline with Tween-80) is 94 % of control.
Turning to `CCOC(OCC)C(=O)OCC(=O)[C@]1(O)Cc2c(O)c3c(c(O)c2[C@@H](OC2CC(N)C(O)C(C)O2)C1)C(=O)c1c(OC)cccc1C3=O` (stereo partly specified), the T/C was 118 % of control (dose: 0.25 mg/kg/injection, schedule: Q01DX009 (ip), vehicle: saline); 182 % of control (dose: 2.0 mg/kg/injection, schedule: Q01DX009 (ip), vehicle: saline); 90 % of control (dose: 4.0 mg/kg/injection, schedule: Q01DX009 (ip), vehicle: saline).
Take `c1ccc2cc3c(ccc4cccc[n+]43)cc2c1`: the T/C (dose: 50.0 mg/kg/injection, schedule: Q01DX001 (ip), vehicle: saline) was 119 % of control.
For the molecule `COC(=O)c1cccc2ccc3ccccc3c12`, the T/C by setting is: (dose: 75.0 mg/kg/injection, schedule: Q04DX003 (ip), vehicle: saline) 97 % of control; (dose: 150.0 mg/kg/injection, schedule: Q04DX003 (ip), vehicle: saline) 103 % of control; (dose: 300.0 mg/kg/injection, schedule: Q04DX003 (ip), vehicle: saline) 94 % of control.
For the molecule `O=C(Nc1ccc(C(=O)CCl)cc1)Nc1ccc(C(=O)CCl)cc1`, the T/C by setting is: (dose: 100.0 mg/kg/injection, schedule: Q01DX005 (ip), vehicle: saline) 100 % of control; under setting [7], 101 % of control; (dose: 200.0 mg/kg/injection, schedule: Q01DX005 (ip), vehicle: saline) 102 % of control; under setting [8], 104 % of control; (dose: 400.0 mg/kg/injection, schedule: Q01DX005 (ip), vehicle: saline) 103 % of control; under setting [9], 93 % of control.
